Test results from patent US9926529B2, “Derivation of neural stem cells and dopaminergic neurons from human pluripotent stem cells” (International Stem Cell Corporation, priority 2012, dated 2018).
Counter-ions that a name gives are not always drawn. Like-named read-outs stand apart in the source and are kept apart here.

Test system: hPSC-NSCs
Assay: RT-PCR expression of dopamine neuron genes in hPSC-NSCs treated with small molecule hits
Assay type: cell-based, human
Conditions: for fold induction at 2.5 µM: Homo sapiens, Neuron, 336 h
Description: The method specifically involved treating both hESC-H9-NSCs (Invitrogen) and hPSC-NSCs with Purmorphamine (2 μM) and FGF8 (100 ng/mL) in NB medium [NeuroBasal medium, 1× GlutaMAX, 1× N2/B27 Supplement (Invitrogen)] for 7 days. After 7 days of Purmorphamine and FGF8 treatment, the NSCs were dissociated with Accutase (Sigma) and plated 20,000 cells/mL into Matrigel coated 96 well plates and treated with small molecule library (Torcris 1120 Biologically Active Compounds) at 2.5 μM final concentration for two weeks (FIG. 6A). Two weeks after treatment with small molecules, all wells were visually observed and scored based on neurite density and dopamine release. For measuring neurite density, cells were fixed with 4% paraformaldehyde and phase contrast images were acquired using Cellavista Cell Imaging System (Roche Applied Science) from randomly selected fields. Neurite density was measured using the Cellavista density software image processing program. Each experimental condition was done in duplicate wells, and at least three independent experiments were conducted to acquire the final results.
Conditioned medium from the top neurite inducers (Table 1) (wells containing the highest density of neurites compare to control 0.1% DMSO treated) were collected and analyzed using a dopamine ELISA assay (Cosmo Bio). Conditioned medium was collected from samples containing 50,000 cells per well and centrifuged at 3000 RPM to remove cell debris. Supernatant was then collected and analyzed for quantitative determination of dopamine using a commercial dopamine ELISA assay kit (CusaCosmo Bio). Data analysis was performed using the microtiter plate reader (BIO-TEK Synergy 2). The results presented are from three independent experiments (n=3) and represented as mean±standard error of mean (s.e.m.) and statistical analysis was performed using the two-tailed Student's t-test with a confidence level of 95% (α=0.05) with statistical significance of P<0.05. Additionally, total RNA from each well were collected and analyze by RT-PCR for expression of TuJ1, MAP2, TH, GRK2, EN1, DAT, AADC, PAX2, NURR1, PITX3 and LMX1B from hPSC-NSCs (Table 2). […] Analysis of the ELISA data indicated the top small molecule neurite inducers produced higher levels of dopamine than control non-treated cells (1.5 ng/mL). […] The percentages of TH positive cells produced by chemical treatment with Kenpaullone (33%), Guggulsterone (35%), Kynurenic Acid (19%), Immedthridine Dihydrobromide (21%), and Dimaprit Dihydrochloride (18%) were higher than 15% of TH positive cells obtained from hPSC-NSCs differentiated for ≥1 month using a standard dopaminergic differentiation medium (BDNF 20 ng/mL, GDNF 20 ng/mL, cAMP 200 μM, Abscorbic Acid 200 μM, TGFβ3 2 ng/mL and DAPT).
Total RNA from at least triplicate samples with around 1 million cells each was isolated using either QIAsymphony automatic purification system or RNeasy Plus Mini kit, according to manufacturer's instructions (Qiagen). Total RNA was used for reverse transcription with the iScript cDNA synthesis kit (Biorad) and Px2 Thermal Cycler (Thermo Scientific). To analyze gene expression, PCR reactions were performed in duplicate using 1/25-th of the cDNA per reaction and the QuantiTect Primer Assay and Quantitest SYBR Green master mix (Qiagen). qPCR was performed using the Rotor-Gene Q (Qiagen) 5 min at 95° C., 5 s at 92° C., and 20 s at 60° C. for 37 cycles followed by melt to check the specificity of the amplicons from 50 to 99° C. raising by 1° C. each step. Relative quantification was performed against a standard curve and quantified values were normalized against the input determined by PPIG. The primers used for the analysis are listed in Supplementary Table S1. […]

[1] = hPSC-NSCs primed 7 days with Purmorphamine and FGF8, small molecule 2.5 μM for two weeks
[2] = hPSC-NSCs primed 7 days with Purmorphamine and FGF8, small molecule 2.5 μM for two weeks, read-out: DDC (AADC) expression by RT-PCR
[3] = hPSC-NSCs primed 7 days with Purmorphamine and FGF8, small molecule 2.5 μM for two weeks, read-out: EN1 expression by RT-PCR
[4] = hPSC-NSCs primed 7 days with Purmorphamine and FGF8, small molecule 2.5 μM for two weeks, read-out: KCNJ6 expression by RT-PCR
[5] = hPSC-NSCs primed 7 days with Purmorphamine and FGF8, small molecule 2.5 μM for two weeks, read-out: LMX1B expression by RT-PCR
[6] = hPSC-NSCs primed 7 days with Purmorphamine and FGF8, small molecule 2.5 μM for two weeks, read-out: MAP2 expression by RT-PCR
[7] = hPSC-NSCs primed 7 days with Purmorphamine and FGF8, small molecule 2.5 μM for two weeks, read-out: NR4A2 (NURR1) expression by RT-PCR
[8] = hPSC-NSCs primed 7 days with Purmorphamine and FGF8, small molecule 2.5 μM for two weeks, read-out: PITX3 expression by RT-PCR
[9] = hPSC-NSCs primed 7 days with Purmorphamine and FGF8, small molecule 2.5 μM for two weeks, read-out: Pax2 expression by RT-PCR
[10] = hPSC-NSCs primed 7 days with Purmorphamine and FGF8, small molecule 2.5 μM for two weeks, read-out: TH1 expression by RT-PCR
[11] = hPSC-NSCs primed 7 days with Purmorphamine and FGF8, small molecule 2.5 μM for two weeks, read-out: Tubb3 expression by RT-PCR

SMILES	DDC (AADC) expression by RT-PCR [1]	EN1 expression by RT-PCR [1]	KCNJ6 (GRK2) expression by RT-PCR [1]	LMX1B expression by RT-PCR [1]	MAP2 expression by RT-PCR [1]	NR4A2 (NURR1) expression by RT-PCR [1]	PITX3 expression by RT-PCR [1]	Pax2 expression by RT-PCR [1]	SLC6A3 (DAT) expression by RT-PCR [1]	TH1 expression by RT-PCR [1]	Tubb3 expression by RT-PCR [1]	other results
Cc1cc(C(=O)O)sc1C(N)C(=O)O (stereo not shown) [3-MATIDA]	80.55	7.3	1.21	2.99	10.7	3.06	0.46	0.65	1.42	5.1	3.74	–
Br.CCCN(CCC)C1CCc2cccc(O)c2C1 (stereo not shown) [8-Hydroxy-DPAT hydrobromide]	124.29	11.69	0.9	5.42	14.43	7.66	–	1.25	19.9	7.32	7.8	–
N[C@@H]1CCN(O)C1=O [(R)-(+)-HA-966]	104.03	7.26	1.02	3.94	10.66	3.91	0.23	4.7	26.39	6.75	5.61	–
Cc1nnc2ccc(-c3cccc(C(F)(F)F)c3)nn12 [CL 218872]	8.73	5.69	0.43	2.52	8.94	1.79	0.08	0.09	0.98	13.89	4.3	–
Nc1nc(Nc2ccccc2)nc2c1ncn2[C@@H]1O[C@H](CO)[C@@H](O)[C@H]1O [CV 1808]	16.69	5.56	0.36	–	8.66	1.56	0.7	–	0.94	12.51	3.86	–
CCCC[C@@H](C=O)NC(=O)[C@H](CC(C)C)NC(=O)OCc1ccccc1 [Calpeptin]	–	–	–	–	–	–	–	–	–	–	–	fold induction at 2.5 µM (read-out: SLC6A3 (DAT) expression by RT-PCR): 6.57; fold induction at 2.5 µM [2]: 295; fold induction at 2.5 µM [3]: 6.93; fold induction at 2.5 µM [4]: 4.43; fold induction at 2.5 µM [5]: 2.9; fold induction at 2.5 µM [6]: 12.9; fold induction at 2.5 µM [7]: 2.45; fold induction at 2.5 µM [8]: 0.37; fold induction at 2.5 µM [9]: 3.54; fold induction at 2.5 µM [10]: 15.2; fold induction at 2.5 µM [11]: 6.1
CC(C)(C)c1cc(C(=O)/C=C/c2ccc(C(=O)O)cc2)cc(C(C)(C)C)c1 [Ch 55]	22.86	11.61	0.25	1.54	5.25	77.93	0.13	0.06	0.11	1.19	3.48	–
O=S(=O)(c1cccc2cnccc12)N1CCCNCC1 [Fasudil hydrochloride]	–	–	–	–	–	–	–	–	–	–	–	fold induction at 2.5 µM [2]: 32.4; fold induction at 2.5 µM [3]: 8.69; fold induction at 2.5 µM [4]: 1.57; fold induction at 2.5 µM [5]: 3.5; fold induction at 2.5 µM [6]: 11.6; fold induction at 2.5 µM [7]: 4.53; fold induction at 2.5 µM [8]: 0.27; fold induction at 2.5 µM [9]: 0.27; fold induction at 2.5 µM (hPSC-NSCs primed 7 days with Purmorphamine and FGF8, small molecule 2.5 μM for two weeks, read-out: SLC6A3 (DAT) expression by RT-PCR): 2.79; fold induction at 2.5 µM [10]: 5.53; fold induction at 2.5 µM [11]: 5.67
